# Assay results as given in patent EP1149104B1, “PYRROLOBENZODIAZEPINE CARBOXYAMIDE VASOPRESSIN AGONISTS” (Wyeth, priority 1999, dated 2000).
# System: vasopressin V2 receptors
# Test: Vasopressin V2 agonist effects in normal conscious water-loaded rats
# Assay type: in vivo
# Conditions: oral dose of 10 mg/Kg, urine collected for four hours, Sprague-Dawley (CD) rats; for Changes in Urinary Osmolality: osmolality changes expressed as percent of control; for Urine Volume (% decrease): percent decrease in urine volume vs. control
# Text: Vasopressin V2 Agonist Effects of Test Compounds in Normal Conscious Water-Loaded Rats:
# Male or female normotensive Sprague-Dawley rats (Charles River Laboratories, Inc., Kingston, NY) of 350-500 g body weight were supplied with standard rodent diet (Purina Rodent Lab. Chow 5001) and water ad libitum. On the day of test, rats were placed individually into metabolic cages equipped with devices to separate the feces from the urine and containers for collection of urine. A test compound or a reference agent was given at an oral dose of 10 mg/Kg in a volume of 10 mL/Kg. The vehicle used was 20% dimethylsulfoxide (DMSO) in 2.5% preboiled corn starch. Thirty minutes after dosing the test compound, rats were gavaged with water at 30 mL/Kg into the stomach using a feeding needle. During the test, rats were not provided with water or food. Urine was collected for four hours after dosing of the test compound. At the end of four hours, urine volume was measured. Urinary osmolality was determined using a Fiske One-Ten Osmometer (Fiske Associates, Norwood, MA, 02062) or an Advanced CRYOMATIC Osmometer, Model 3C2 (Advanced Instruments, Norwood, MA). Determinations of Na^+, K^+- and Cl^- ion were carried out using ion specific electrodes in a Beckman SYNCHRON EL-ISE Electrolyte System analyzer. The urinary osmolality should increase proportionally. In the screening test, two rats were used for each compound. If the difference in the urine volume of the two rats was greater than 50%, a third rat was used.
smiles,measurement,value
"O=C(c1ccc2ncsc2c1)N1Cc2cccn2Cc2ccccc21 [Example 4, (Benzothiazol-6-yl)-(5H-10,11-dihydro-pyrrolo[2,1-c][1,4]benzodiazepin-10-yl)-methanone]",Changes in Urinary Osmolality,3% of control
same,Urine Volume (% decrease),19 % decrease
"O=C(c1ccc2c(c1)OCO2)N1Cc2cccn2Cc2ccccc21 [Example 2, Benzo[1,3]dioxol-5-yl-(5H-10,11-dihydro-pyrrolo [2,1-c][1-4]benzodiazepin-10-yl)-methanone]",Changes in Urinary Osmolality,41% of control
same,Urine Volume (% decrease),23 % decrease
"Cn1ccc2cc(C(=O)N3Cc4cccn4Cc4ccccc43)ccc21 [Example 1, (5H-10,11-Dihydro-pyrrolo [2,1-c][1,4]benzodiazepin-10-yl)-(1-methyl-1H-indol-5-yl)-methanone]",Changes in Urinary Osmolality,174% of control
same,Urine Volume (% decrease),66 % decrease
"O=C(c1ccc2c(c1)CCO2)N1Cc2cccn2Cc2ccccc21 [Example 3, (2,3-Dihydro-benzofuran-5-yl)-(5H-10,11-dihydro-pyrrolo[2,1-c][1,4]benzodiazepin-10-yl)-methanone]",Changes in Urinary Osmolality,10% of control
same,Urine Volume (% decrease),32 % decrease
